Reference: patent publication US7208518B2, “Substituted furochromene compounds of antiinflammatory action” (GlaxoSmithKline Istrazivacki Centar Zagreb D.O.O., priority 2003, dated 2007)

Columns and labels:
[1] = test system: hyperreactivity of the bronchi induced by methacholine; experiment: Hyperreactivity of the bronchi, pletismometric method, mice; assay type: in vivo; conditions: i.p. 10 mg/kg, totally for 4 days, methacholine concentration of 25 mg/mL, measured over 24 hours after the provocative test
Method: (§1) Hyperreactivity of the Bronchi
(§2) The hyperreactivity of the bronchi was measured by pletismometric method (Buxco pletismometer), which is based on pressure difference and was performed in conscious and non-bound animals. The action of the compounds on the hyperreactivity of the bronchi induced by methacholine (Sigma) in aerosol form in different concentrations was expressed by the percentage of the increase of the enhanced pause value (PENH) above the base line, which was recorded without a cholinergic stimulant.
Compound 6 was used i.p. in mice in a dosis of 10 mg/kg within a period beginning two days prior to provocative test to the end of the test, totally for 4 days. The hyperreactivity of the bronchi was measured by pletismometric method over 24 hours after the provocative test.

[2] = test system: hyperreactivity of the bronchi induced by methacholine; experiment: Hyperreactivity of the bronchi, pletismometric method, rats; assay type: in vivo; conditions: i.p. 10 mg/kg, totally for 4 days, methacholine concentration of 50 mg/mL, measured over 24 hours after the provocative test
Method: as §1, §2
Compound 36 was used i.p. in rats in a dosis of 10 mg/kg within a period beginning two days prior to the provocative test to the end of test, totally for 4 days. The hyperreactivity of the bronchi was measured by pletismometric method over 24 hours after the provocative test.

Structure (SMILES) | hyperreactivity of respiratory airways (PENH) in relation to the positive control group [1] | hyperreactivity of respiratory airways (PENH) in relation to the positive control group [2]
Cc1cc(C)c2c(O)c(C3c4c(c5c(C)cc(C)cc5oc4=O)OC3O)c(=O)oc2c1 (centres unmarked) [Compound 6, 2-Hydroxy-3-(4-hydroxy-5,7-dimethyl-2-oxo-2H-chromene-3-yl)-7,9-dimethyl-2,3-dihydro-4H-furo[3,2-c]chromene-4-one] | statistically significantly (t-test, p<0.05) decreased | 
O=c1oc2cc(Cl)ccc2c(O)c1C1c2c(c3ccc(Cl)cc3oc2=O)OC1O (centres unmarked) [Compound 36, 2-Hydroxy-3-(4-hydroxy-7-chloro-2-oxo-2H-chromene-3-yl)-7-chloro-2,3-dihydro-4H-furo[3,2-c]chromene-4-one] |  | statistically significantly (t-test, p<0.01) decreased
